Experimental data as given in the RepoRT retention time repository (doi:10.1021/acs.analchem.2c02893).

Assay: RP, Thermo Scientific Acclaim RSLC 120 C18, 100 × 2.1 mm, 2.2 µm, 30 °C, 0.2 mL/min, estimated dead time 1.1 min; A: 90% water + 10% methanol + 0.01% formic acid + 5 mM ammonium formate, pH 3.61; B: methanol + 0.01% formic acid + 5 mM ammonium formate, pH 3.61; gradient (min/%B) 0/1 1/1 2/39 13/99.9 15/99.9 15.1/1 20.1/1
Conditions: stereoisomer not certain

Row | LC retention time | SMILES
1 | 14 min | CCCCOC(=O)C1C(C(=O)OCCCC)C2(Cl)C(Cl)=C(Cl)C1(Cl)C2(Cl)Cl (configuration not stated) [Chlorendate-Dibutyl]
2 | 10.2 min | COC(=O)C(Cl)Cc1ccc(Cl)cc1 (configuration not stated) [Chlorfenprop-methyl]
3 | 3.53 min | Cn1ncc(N)c(Cl)c1=O [Chloridazone-methyl-desphenyl]
4 | 10.2 min | CCCc1nn(C)c2c(=O)[nH]c(-c3cc(C(=O)CCl)ccc3OCC)nc12 [Chlorodenafil]
5 | 9.34 min | COC(=O)C1Cc2c([nH]c3ccccc23)C(c2ccc3c(c2)OCO3)N1C(=O)CCl (configuration not stated) [Chloropretadalafil]
6 | 7.09 min | CN(C)CCN(Cc1ccc(Cl)cc1)c1ccccn1 [Chloropyramine]
7 | 3.88 min | CC(CCCNCCO)Nc1ccnc2cc(Cl)ccc12 (configuration not stated) [Chloroquine-Desethylhydroxy]
8 | 3.98 min | CCN(CCO)CCCC(C)Nc1ccnc2cc(Cl)ccc12 (configuration not stated) [Chloroquine-Hydroxy]
9 | 4.16 min | CCN(CC)CCCC(C)Nc1ccnc2cc(Cl)ccc12 (configuration not stated) [Chloroquine]
10 | 9.99 min | CN(C)C(=O)Nc1ccc(Oc2ccc(Cl)cc2)cc1 [Chloroxuron (Chloroxifenidim)]
11 | 8.49 min | CN(C)CCN1c2ccccc2Sc2ccc(Cl)cc21 [Chlorphenethazine]
12 | 6.25 min | CN(C)CCC(c1ccc(Cl)cc1)c1ccccn1 (configuration not stated) [Chlorpheniramine]
13 | 8.89 min | CN(C)CCCN1c2ccccc2Sc2ccc(Cl)cc21 [Chlorpromazine]
14 | 7.19 min | CCCNC(=O)NS(=O)(=O)c1ccc(Cl)cc1 [Chlorpropamide]
15 | 8.99 min | CN(C)CCC=C1c2ccccc2Sc2ccc(Cl)cc21 [Chlorprotixene]
16 | 11.6 min | COC(=O)c1c(Cl)c(Cl)c(C(=O)OC)c(Cl)c1Cl [Chlorthal-dimethyl (DCPA. Dacthal) (NH4)]
17 | 5.06 min | NS(=O)(=O)c1cc(C2(O)NC(=O)c3ccccc32)ccc1Cl (configuration not stated) [Chlorthalidone]

Row | LC retention time | SMILES
18 | 4.88 min | CC1(C)CC1C(=O)NC(=CCCCCSCC(N)C(=O)O)C(=O)O (configuration not stated) [Cilastatin]
19 | 7.94 min | CCOC(=O)C(CCc1ccccc1)NC1CCCN2CCCC(C(=O)O)N2C1=O (configuration not stated) [Cilazapril]
20 | 12.4 min | CCOC(=O)C(Cl)=Cc1cc(N2C(=O)C3=C(CCCC3)C2=O)ccc1Cl [Cinidon-ethyl]
21 | 9.28 min | CCCc1nn(C)c2c(=O)[nH]c(-c3cc(C(=O)CN4CCN(CC=Cc5ccccc5)CC4)ccc3OCC)nc12 [Cinnamyldenafil]
22 | 9.86 min | C(=Cc1ccccc1)CN1CCN(C(c2ccccc2)c2ccccc2)CC1 [Cinnarizine]
23 | 6.36 min | COCCOc1ccccc1S(=O)(=O)NC(=O)Nc1nc(OC)nc(OC)n1 [Cinosulfuron]
24 | 5.32 min | CCn1nc(C(=O)O)c(=O)c2cc3c(cc21)OCO3 [Cinoxacin]
25 | 6.73 min | COc1cc(N)c(Cl)cc1C(=O)NC1CCN(CCCOc2ccc(F)cc2)CC1OC (configuration not stated) [Cisapride]
26 | 6.6 min | CN(C)CCCC1(c2ccc(F)cc2)OC(=O)c2cc(C#N)ccc21 (configuration not stated) [Citalopram 3-oxo]
27 | 7.1 min | C[N+](C)([O-])CCCC1(c2ccc(F)cc2)OCc2cc(C#N)ccc21 (configuration not stated) [Citalopram N-oxide]
28 | 5.15 min | CN(C)CCCC1(c2ccc(F)cc2)OCc2cc(C(N)=O)ccc21 (configuration not stated) [Citalopram amide]
29 | 5.83 min | CN(C)CCCC1(c2ccc(F)cc2)OCc2cc(C(=O)O)ccc21 (configuration not stated) [Citalopram carboxylic acid]
30 | 6.59 min | CN(C)CCCC1(c2ccc(F)cc2)OCc2cc(C#N)ccc21 (configuration not stated) [Citalopram]
31 | 9.16 min | CCC1OC(=O)C(C)C(OC2CC(C)(OC)C(O)C(C)O2)C(C)C(OC2OC(C)CC(NC)C2O)C(C)(OC)CC(C)C(=O)C(C)C(O)C1(C)O (configuration not stated) [Clarithromycin-N-desmethyl]
32 | 9.18 min | CCC1OC(=O)C(C)C(OC2CC(C)(OC)C(O)C(C)O2)C(C)C(OC2OC(C)CC(N(C)C)C2O)C(C)(OC)CC(C)C(=O)C(C)C(O)C1(C)O (configuration not stated) [Clarithromycin]
33 | 9.31 min | CN1CCCC1CCOC(C)(c1ccccc1)c1ccc(Cl)cc1 (configuration not stated) [Clemastine]
34 | 6.27 min | CC(CC(=O)Nc1ccc(Cl)cc1Cl)N1CCCCC1 (configuration not stated) [Clibucaine]

Row | SMILES | LC retention time
35 | CCOCn1c(-c2ccc(Cl)cc2)c(C#N)c(Br)c1C(F)(F)F [Chlorfenapyr] | 11.8 min
36 | O=S(=O)(Oc1ccc(Cl)cc1)c1ccc(Cl)cc1 [Chlorfenson.Ovex.chlorofenizon.ephirsulfonate.ovatron] | 11.1 min
37 | O=C(NC(=O)c1c(F)cccc1F)Nc1cc(Cl)c(Oc2ncc(C(F)(F)F)cc2Cl)c(Cl)c1 [Chlorfluazuron] | 13.2 min
38 | Nc1cnn(-c2ccccc2)c(=O)c1Cl [Chloridazone] | 5.34 min
39 | CCOC(=O)c1ccccc1S(=O)(=O)NC(=O)Nc1nc(Cl)cc(OC)n1 [Chlorimuronethyl] | 9.3 min
40 | C[N+](C)(C)CCCl [Chlormequat] | 1.67 min
41 | CN1C(=O)CCS(=O)(=O)C1c1ccc(Cl)cc1 (configuration not stated) [Chlormezanone] | 5.94 min
42 | CCOC(=O)C(O)(c1ccc(Cl)cc1)c1ccc(Cl)cc1 [Chlorobenzilate] | 11.7 min
43 | O=C1c2ccccc2C(=O)C1C(=O)C(c1ccccc1)c1ccc(Cl)cc1 (configuration not stated) [Chlorophacinone] | 9.74 min
44 | Clc1cccc(N2CCNCC2)c1 [Chlorophenylpiperazine (meta-)<U+00A0>(mCPP)] | 5.42 min
45 | CC(C)OC(=O)C(O)(c1ccc(Cl)cc1)c1ccc(Cl)cc1 [Chloropropylate] | 12.2 min
46 | NC(=S)c1c(Cl)cccc1Cl [Chlorothiamide] | 5.69 min
47 | Cc1ccc(NC(=O)N(C)C)cc1Cl [Chlorotoluron] | 7.98 min
48 | CC(C)OC(=O)Nc1cccc(Cl)c1 [Chlorpropham] | 9.78 min
49 | COP(=S)(OC)Oc1nc(Cl)c(Cl)cc1Cl [Chlorpyriphos-methyl] | 11.7 min
50 | CCOP(=S)(OCC)Oc1nc(Cl)c(Cl)cc1Cl [Chlorpyriphos] | 12.7 min
51 | COc1nc(C)nc(NC(=O)NS(=O)(=O)c2ccccc2Cl)n1 [Chlorsulfuron] | 6.54 min
52 | CN(C)C1C(=O)C(C(N)=O)=C(O)C2(O)C(=O)C3=C(O)c4c(O)ccc(Cl)c4C(C)(O)C3CC12 (configuration not stated) [Chlortetracycline] | 4.5 min
53 | COP(=S)(OC)Oc1ccc([N+](=O)[O-])c(Cl)c1 [Chlorthion] | 10.2 min
54 | Cc1cc(C)cc(C(=O)N(NC(=O)c2ccc3c(c2C)CCCO3)C(C)(C)C)c1 [Chromafenozide] | 9.93 min
55 | CC(C)(C)NCC(O)c1cc(Cl)c(N)c(Cl)c1 (configuration not stated) [Clenbuterol] | 4.76 min
56 | CNC(C)C(=O)c1ccc(Cl)cc1 (configuration not stated) [Clephedrone (4-Chloromethcathinone)] | 4.91 min
57 | C[N+]12CCC(CC1)C(OC(=O)C(O)(c1ccccc1)c1ccccc1)C2 (configuration not stated) [Clidinium (I+)] | 5.84 min
